Results reported in ChEMBL document CHEMBL4680356, “Discovery of a novel 53BP1 inhibitor through AlphaScreen-based high-throughput screening” (Bioorg Med Chem, 2021).

Each compound was assayed against T1, TP53-binding protein 1 (Homo sapiens, UniProt Q12888) (assay: Binding affinity to recombinant human N-terminal His6-tagged lysine dye- labeled 53BP1 TTD (1484 to1603 residues) expressed in Escherichia coli BL21 (DE3) cells incubated for 10 mins by MST assay).
T1 sequence (Q12888 whole entry, the tested form may be a part): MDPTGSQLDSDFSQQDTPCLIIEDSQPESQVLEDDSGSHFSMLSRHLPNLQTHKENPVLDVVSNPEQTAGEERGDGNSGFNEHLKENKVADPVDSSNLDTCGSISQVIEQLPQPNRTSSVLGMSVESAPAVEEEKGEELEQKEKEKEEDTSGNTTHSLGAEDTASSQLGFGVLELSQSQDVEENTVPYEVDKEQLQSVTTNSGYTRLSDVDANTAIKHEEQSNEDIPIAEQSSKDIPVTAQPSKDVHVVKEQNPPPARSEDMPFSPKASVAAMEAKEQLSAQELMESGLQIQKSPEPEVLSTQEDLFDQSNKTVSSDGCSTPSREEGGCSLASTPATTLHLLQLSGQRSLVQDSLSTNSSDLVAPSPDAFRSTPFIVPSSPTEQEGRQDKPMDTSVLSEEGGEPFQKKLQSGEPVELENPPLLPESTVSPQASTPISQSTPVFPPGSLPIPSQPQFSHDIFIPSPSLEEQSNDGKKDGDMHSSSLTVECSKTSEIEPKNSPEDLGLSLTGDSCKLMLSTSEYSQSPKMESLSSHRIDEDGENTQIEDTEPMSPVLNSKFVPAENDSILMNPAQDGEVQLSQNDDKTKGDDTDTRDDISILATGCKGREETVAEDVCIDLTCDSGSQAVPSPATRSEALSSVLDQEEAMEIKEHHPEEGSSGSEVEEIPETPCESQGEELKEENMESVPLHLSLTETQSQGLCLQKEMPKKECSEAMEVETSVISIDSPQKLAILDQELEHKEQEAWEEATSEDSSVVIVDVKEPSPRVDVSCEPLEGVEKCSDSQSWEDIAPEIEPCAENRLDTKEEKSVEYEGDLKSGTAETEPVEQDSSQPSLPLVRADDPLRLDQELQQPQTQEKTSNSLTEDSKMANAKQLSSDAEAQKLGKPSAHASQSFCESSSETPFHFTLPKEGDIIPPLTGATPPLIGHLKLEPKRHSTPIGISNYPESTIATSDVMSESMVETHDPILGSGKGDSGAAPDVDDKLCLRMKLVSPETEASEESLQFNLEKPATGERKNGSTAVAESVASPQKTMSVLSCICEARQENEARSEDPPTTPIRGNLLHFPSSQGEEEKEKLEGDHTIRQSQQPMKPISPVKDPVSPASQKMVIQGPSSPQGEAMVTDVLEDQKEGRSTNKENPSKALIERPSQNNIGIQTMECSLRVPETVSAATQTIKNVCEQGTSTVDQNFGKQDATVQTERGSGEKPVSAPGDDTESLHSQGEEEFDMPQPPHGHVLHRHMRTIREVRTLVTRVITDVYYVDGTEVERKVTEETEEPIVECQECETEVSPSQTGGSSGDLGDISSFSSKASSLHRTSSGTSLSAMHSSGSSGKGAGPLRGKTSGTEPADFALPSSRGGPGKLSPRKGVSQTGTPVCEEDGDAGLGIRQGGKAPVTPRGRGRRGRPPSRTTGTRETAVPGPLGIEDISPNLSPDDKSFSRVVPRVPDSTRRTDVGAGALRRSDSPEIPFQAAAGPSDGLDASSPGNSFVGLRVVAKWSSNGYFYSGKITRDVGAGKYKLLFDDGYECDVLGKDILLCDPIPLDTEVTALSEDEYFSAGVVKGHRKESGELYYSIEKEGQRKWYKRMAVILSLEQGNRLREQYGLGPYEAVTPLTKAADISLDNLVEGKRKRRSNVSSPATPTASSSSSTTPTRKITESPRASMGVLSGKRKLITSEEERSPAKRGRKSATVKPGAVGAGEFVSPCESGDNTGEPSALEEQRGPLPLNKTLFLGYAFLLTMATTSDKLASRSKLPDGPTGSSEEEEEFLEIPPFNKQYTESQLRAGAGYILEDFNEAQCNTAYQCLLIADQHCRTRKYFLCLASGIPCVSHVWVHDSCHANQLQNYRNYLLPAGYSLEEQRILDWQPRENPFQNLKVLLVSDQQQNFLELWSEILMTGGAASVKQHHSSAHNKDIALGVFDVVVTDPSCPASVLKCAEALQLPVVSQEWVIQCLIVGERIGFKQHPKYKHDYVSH

Compound	Kd [µM]
CCN(CC)c1cc(C)c2cc(NC(=O)/C=C/c3ccco3)ccc2n1	2.69

The compounds below were run against T1, TP53-binding protein 1 (assay: Binding affinity to recombinant human N-terminal His6-tagged 53BP1 TTD (1484 to1603 residues) expressed in Escherichia coli BL21 (DE3) cells by SPR analysis).

Compound	Kd [µM]
CCN(CC)c1cc(C)c2cc(NC(=O)/C=C/c3ccco3)ccc2n1	2.7

These compounds were tested against T1, TP53-binding protein 1 (assay: Inhibition of recombinant human N-terminal His6-tagged 53BP1 TTD (1484 to1603 residues) expressed in Escherichia coli BL21 (DE3) cells using Biotin-H4K2Ome2 as substrate preincubated for 30 mins followed by substrate addition and measured after 30 mins by AlphaScreen assay).

Compound	IC50 [µM]
Cc1cc(N(C)C)nc2ccc(NC(=O)/C=C/c3ccco3)cc12	4.2
O=C(/C=C/c1ccco1)Nc1cccc2ncccc12	> 50
Cc1cc(N2CCCCC2)nc2ccc(NC(=O)/C=C/c3ccco3)cc12	15.1
Cc1cc2cc(NC(=O)/C=C/c3ccco3)ccc2[nH]1	22.3
CCN(CC)c1cc(C)c2cc(NC(=O)/C=C/c3ccco3)ccc2n1	1.69
CN(C)c1ccc2cc(NC(=O)/C=C/c3cccc4cccnc34)ccc2n1	> 50
CCN(CC)c1cc(C)c2cc(N(C)C(=O)/C=C/c3ccco3)ccc2n1	17.8
CCN(CC)c1cc(C)c2cc(NC(=O)/C=C/c3ccc4ccoc4c3)ccc2n1	> 50
CCN(CC)c1cc(C)c2cc(NC(=O)/C=C/c3ccccn3)ccc2n1	31.3
